# From patent US20250388565A1, “ESTROGEN RECEPTOR ALPHA DEGRADERS AND METHODS OF USE THEREOF” (Relay Therapeutics, Inc., priority 2022, published 2025)
# Target: T1, ERα protein (HiBiT-tagged) in ESR1_HiBiT KI MCF7 cells (Homo sapiens, UniProt P03372)
# T1 sequence (P03372 1-595): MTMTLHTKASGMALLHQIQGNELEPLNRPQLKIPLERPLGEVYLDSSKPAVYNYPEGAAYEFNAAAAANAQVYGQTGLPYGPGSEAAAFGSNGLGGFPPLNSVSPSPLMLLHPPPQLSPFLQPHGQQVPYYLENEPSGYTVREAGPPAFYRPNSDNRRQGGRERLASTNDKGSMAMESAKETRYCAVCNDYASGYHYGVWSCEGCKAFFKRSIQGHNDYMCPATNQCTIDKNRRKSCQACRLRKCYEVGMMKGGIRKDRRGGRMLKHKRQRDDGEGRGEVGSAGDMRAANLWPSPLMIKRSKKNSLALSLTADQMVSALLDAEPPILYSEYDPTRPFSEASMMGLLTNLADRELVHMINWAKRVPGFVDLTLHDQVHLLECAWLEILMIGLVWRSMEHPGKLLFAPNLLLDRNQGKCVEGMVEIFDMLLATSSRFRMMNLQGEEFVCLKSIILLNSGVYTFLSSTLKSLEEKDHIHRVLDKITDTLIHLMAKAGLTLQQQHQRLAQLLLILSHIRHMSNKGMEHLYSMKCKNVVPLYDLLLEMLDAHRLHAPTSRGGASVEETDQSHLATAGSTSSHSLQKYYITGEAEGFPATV
# Assay: Nano Glo HiBiT Lytic Degradation Assay
# Format: cell-based
# Conditions: 6 hours with compound, 14-point dose response 1:3, bell-shape curve fit, half-maximal effect of first Hill model, read-out: MCF7 ESR1 HiBiT - (DC50)
# Method in brief: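 Lytic Nano-Glo HiBiT luminescence quantified ERα remaining after a 6 h, 37° C compound exposure of MCF7 cells carrying endogenous HiBiT-tagged ESR1. Dosing used 14 threefold dilutions from a 10 mM DMSO stock (0.1% DMSO final), run in duplicate. Signals were corrected for cell-free background and expressed relative to DMSO, and DC50 came from a bell-shaped curve fit (first Hill model half-maximum).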
row,Compound,DC50 [nM]
1,"O=C1CC[C@H](N2Cc3cc(N4CCN(CC5CCN(c6ccc([C@H]7c8ccc(O)cc8CO[C@H]7C7CCC7)cc6)CC5)CC4)ccc3C2=O)C(=O)N1 [Compound I-244, (S)-3-(5-(4-((1-(4-((3S,4S)-3-cyclobutyl-7-hydroxyisochroman-4-yl)phenyl)piperidin-4-yl)methyl)piperazin-1-yl)-1-oxoisoindolin-2-yl)piperidine-2,6-dione]",4
2,"O=C1CC[C@H](N2Cc3cc(N4CCN(CC5CCN(c6ccc([C@H]7c8ccc(O)cc8CC[C@H]7c7ccc(O)cc7)cc6)CC5)CC4)ccc3C2=O)C(=O)N1 [Compound I-130, (35)-3-[5-[4-[[1-[4-[(1S, 2R)-6-hydroxy-2-(4-hydroxyphenyl)tetralin-1-yl]phenyl]-4-piperidyl]methyl]piperazin-1-yl]-1-oxo-isoindolin-2-yl]piperidine-2,6-dione]",≥ 10000
3,"O=C1CCC(c2ccc(N3CCN(C4CCN(c5ccc([C@H]6c7ccc(O)cc7CC[C@H]6c6ccccc6)cc5)CC4)CC3)cc2)C(=O)N1 (single isomer, unassigned) [Compound I-41]",370
4,"CC(C)(O)[C@@H]1CCc2cc(O)ccc2[C@@H]1c1ccc(N2CCC(CN3CCN(c4ccc5c(c4)CN([C@H]4CCC(=O)NC4=O)C5=O)CC3)CC2)cc1 [Compound I-219, (S)-3-(5-(4-((1-(4-((1S,2R)-6-hydroxy-2-(2-hydroxypropan-2-yl)-1,2,3,4-tetrahydronaphthalen-1-yl)phenyl)piperidin-4-yl)methyl)piperazin-1-yl)-1-oxoisoindolin-2-yl)piperidine-2,6-dione]",≥ 10000
5,"Cc1cc(N2CCC(CN3CCN(c4ccc5c(c4)CN([C@H]4CCC(=O)NC4=O)C5=O)CC3)CC2)ccc1[C@@H]1c2ccc(O)cc2CC[C@@H]1C1CCCCC1 [Compound I-141, (S)-3-(5-(4-((1-(4-((1R,2R)-2-cyclohexyl-6-hydroxy-1,2,3,4-tetrahydronaphthalen-1-yl)-3-methylphenyl)piperidin-4-yl)methyl)piperazin-1-yl)-1-oxoisoindolin-2-yl)piperidine-2,6-dione]",2
6,"O=C1CC[C@H](N2Cc3cc(N4CCC5(CCN(CC6CCN(c7ccc([C@H]8c9ccc(O)cc9CC[C@H]8c8ccccc8)cc7)CC6)CC5)CC4)ccc3C2=O)C(=O)N1 (single isomer, unassigned) [II-18]",≥ 10000
7,"O=C1CCC(c2cccc(N3CC[C@H]4[C@@H]3CCN4CC3CCN(c4ccc([C@@H]5c6ccc(O)cc6CC[C@@H]5c5ccccc5)cc4)CC3)c2)C(=O)N1 (stereo partly drawn) [Compound I-179, 3-(3-((3aS,6aS)-4-((1-(4-((1R,2S)-6-hydroxy-2-phenyl-1,2,3,4-tetrahydronaphthalen-1-yl)phenyl)piperidin-4-yl)methyl)hexahydropyrrolo[3,2-b]pyrrol-1 (2H)-yl)phenyl)piperidine-2,6-dione]",34
8,"O=C1CC[C@H](N2Cc3cc(N4CCN(CC5CCN(c6ccc([C@H]7c8ccc(O)cc8CC[C@H]7C7CCCCC7)cc6)CC5)CC4)ccc3C2=O)C(=O)N1 [Compound I-5, (3S)-3-[5-[4-[[1-[4-[(1S,2S)-2-cyclohexyl-6-hydroxy-tetralin-1-yl]phenyl]-4-piperidyl]methyl]piperazin-1-yl]-1-oxo-isoindolin-2-yl]piperidine-2,6-dione]",≥ 10000
9,"O=C1CC[C@H](N2Cc3cc(N4CCN(CC5CCN(c6ccc([C@@H]7c8ccc(O)cc8CO[C@@H]7C7CC7)cc6)CC5)CC4)ccc3C2=O)C(=O)N1 (single isomer, unassigned) [Compound I-242]",3300
10,"C[C@]1(C2CCCCC2)CCc2cc(O)ccc2[C@H]1c1ccc(N2CCC(CN3CCN(c4ccc5c(c4)CN([C@H]4CCC(=O)NC4=O)C5=O)CC3)CC2)cc1 [Compound I-238, (S)-3-(5-(4-((1-(4-((1R,2R)-2-cyclohexyl-6-hydroxy-2-methyl-1,2,3,4-tetrahydronaphthalen-1-yl)phenyl)piperidin-4-yl)methyl)piperazin-1-yl)-1-oxoisoindolin-2-yl)piperidine-2,6-dione]",4
11,"O=C1CC[C@H](N2Cc3cc(N4CCN(CC5CCN(c6ccc([C@@H]7c8ccc(O)cc8CC[C@@H]7c7cccc(F)c7)cc6)CC5)CC4)ccc3C2=O)C(=O)N1 (single isomer, unassigned) [II-26]",≥ 10000
12,O=C1CC[C@H](N2Cc3cc(N4CCN(CC5CCN(c6cc(F)c([C@@H]7c8ccc(O)cc8CC[C@@H]7c7ccccc7)c(F)c6)CC5)CC4)ccc3C2=O)C(=O)N1 [II-102],0.15
13,"Cc1cccc([C@@H]2CCc3cc(O)ccc3[C@@H]2c2ccc(N3CCC(CN4CCN(c5ccc6c(c5)CN([C@H]5CCC(=O)NC5=O)C6=O)CC4)CC3)cc2)c1 (single isomer, unassigned) [II-29]",1.24
14,"O=C1CC[C@H](N2Cc3cc(N4CCN(CC5CCN(c6ccc([C@@H]7c8ccc(O)cc8CO[C@@H]7c7ccccc7)cc6)CC5)CC4)ccc3C2=O)C(=O)N1 [Compound I-3, (S)-3-(5-(4-((1-(4-((3S,4R)-7-hydroxy-3-phenylisochroman-4-yl)phenyl)piperidin-4-yl)methyl)piperazin-1-yl)-1-oxoisoindolin-2-yl)piperidine-2,6-dione]",0.27
15,"O=C1CC[C@H](N2Cc3cc(N4CCN(CC5CCN(c6ccc([C@@H]7c8ccc(O)cc8C(F)(F)C[C@@H]7c7ccc(F)cc7)cc6)CC5)CC4)ccc3C2=O)C(=O)N1 [Compound I-192, (S)-3-(5-(4-((1-(4-((1R,2S)-4,4-difluoro-2-(4-fluorophenyl)-6-hydroxy-1,2,3,4-tetrahydronaphthalen-1-yl)phenyl)piperidin-4-yl)methyl)piperazin-1-yl)-1-oxoisoindolin-2-yl)piperidine-2,6-dione]",0.62
16,"O=C1CC[C@@H](c2ccc(N3CCC4(CCN(CC5CCN(c6ccc([C@@H]7c8ccc(O)cc8CC[C@@H]7c7ccccc7)cc6)CC5)C4)CC3)cc2)C(=O)N1 (single isomer, unassigned) [Compound I-284]",≥ 10000
17,O=C1CC[C@H](N2Cc3cc(N4CCN(CC5CCN(c6ccc([C@@H]7c8ccc(O)c(Cl)c8CC[C@@H]7c7ccccc7)cc6)CC5)CC4)ccc3C2=O)C(=O)N1 [II-65],4
18,O=C1CC[C@H](N2Cc3cc(N4CCN(CC5CCN(c6ccc([C@@H]7c8ccc(O)cc8CO[C@@H]7c7ccc(C(F)(F)F)cc7)cc6)CC5)CC4)ccc3C2=O)C(=O)N1 [Compound I-349],0.39
19,"O=C1CCC(n2cc3cc(N4CCN(CC5CCN(c6ccc([C@@H]7c8ccc(O)cc8CO[C@@H]7c7ccccc7)cc6)CC5)CC4)ccc3n2)C(=O)N1 (stereo partly drawn) [Compound I-397, 3-(5-(4-((1-(4-((3S,4R)-7-hydroxy-3-phenylisochroman-4-yl)phenyl)piperidin-4-yl)methyl)piperazin-1-yl)-2H-indazol-2-yl)piperidine-2,6-dione]",0.61
20,"COc1cc(N2CCC(CN3CCN(c4ccc5c(c4)CN([C@H]4CCC(=O)NC4=O)C5=O)CC3)CC2)ccc1[C@@H]1c2ccc(O)cc2CC[C@@H]1C1CCCCC1 [Compound I-152, (S)-3-(5-(4-((1-(4-((1S,2R)-2-cyclohexyl-6-hydroxy-1,2,3,4-tetrahydronaphthalen-1-yl)-3-methoxyphenyl)piperidin-4-yl)methyl)piperazin-1-yl)-1-oxoisoindolin-2-yl)piperidine-2,6-dione]",1.43
21,"C[C@@]1(c2ccccc2)CCc2cc(O)ccc2[C@@H]1c1ccc(N2CCC(CN3CCN(c4ccc5c(c4)CN([C@H]4CCC(=O)NC4=O)C5=O)CC3)CC2)cc1 [Compound I-148, (S)-3-(5-(4-((1-(4-((1R,2R)-6-hydroxy-2-methyl-2-phenyl-1,2,3,4-tetrahydronaphthalen-1-yl)phenyl)piperidin-4-yl)methyl)piperazin-1-yl)-1-oxoisoindolin-2-yl)piperidine-2,6-dione]",424
22,"O=C1CCC(N2Cc3cc([C@@H]4CCN(CC5CCN(c6ccc([C@@H]7c8ccc(O)cc8CC[C@@H]7c7ccccc7)cc6)CC5)CC4(F)F)ccc3C2=O)C(=O)N1 (single isomer, unassigned) [II-91]",20
23,"CC(C)C[C@@H]1OCc2cc(O)ccc2[C@@H]1c1ccc(N2CCC(CN3CCN(c4ccc5c(c4)CN([C@H]4CCC(=O)NC4=O)C5=O)CC3)CC2)cc1 (single isomer, unassigned) [Compound I-221]",≥ 10000
24,O=C1CC[C@H](N2Cc3cc(N4CCN(CC5CCN(c6ccc([C@H]7c8ccc(O)cc8CC[C@H]7c7ccccc7)nc6)CC5)CC4)ccc3C2=O)C(=O)N1 [II-77],≥ 10000
25,"O=C1CCC(N2Cc3cc(N4CCN(CC5CCN(c6ccc([C@@H]7c8ccc(O)cc8CC[C@@H]7C7CCC(F)(F)CC7)cc6)CC5)CC4)ccc3C2=O)C(=O)N1 (single isomer, unassigned) [Compound I-54]",742
26,"CC(C)[C@@H]1OCc2cc(O)ccc2[C@@H]1c1ccc(N2CCC(CN3CCN(c4ccc5c(c4)CN([C@H]4CCC(=O)NC4=O)C5=O)CC3)CC2)cc1 (single isomer, unassigned) [Compound I-226]",59
